Source: PubChem BioAssay (NCI)
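The compound was tested at five concentrations on cells cultured in 96-well plates, with a 48-hour exposure period. GI50 is the concentration that inhibits growth by half. TGI denotes the concentration required for complete inhibition of growth.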

What was measured:
Test in all cases: growth of human tumour cells (NCI), 48 h
[1] = system: COLO 205 colon
[2] = system: EKVX NSCLC
[3] = system: HL-60(TB) leukemia
[4] = system: K-562 leukemia
[5] = system: MDA-MB-435
[6] = system: OVCAR-4 ovarian
[7] = system: RXF 393 renal
[8] = system: SK-MEL-5 melanoma
[9] = system: UACC-257 melanoma
[10] = system: SF-268 CNS

## O=C(NCCc1ccccc1)Nc1ccc2cc3ccc(NC(=O)NCCc4ccccc4)cc3nc2c1
[1]
  GI50: 0.318 µM
  TGI: 1.19 µM
[2]
  GI50: 3.49 µM
  TGI: 21.8 µM
[3]
  GI50: 0.266 µM
  TGI: 0.774 µM
[4]
  GI50: 0.392 µM
  TGI: 35.7 µM
[5]
  GI50: 0.813 µM
  TGI: 2.13 µM
[6]
  GI50: 1.48 µM
  TGI: 3.48 µM
[7]
  GI50: 1.32 µM
  TGI: 6.49 µM
[8]
  GI50: 1.5 µM
  TGI: 3 µM
[9]
  GI50: 1.86 µM
  TGI: 4.07 µM

## [N-]=[N+]=NCCCn1c2c(c3ccc([N+](=O)[O-])cc3c1=O)C(=O)c1cc3c(cc1-2)OCO3
[1]
  GI50: 0.585 µM
  TGI: > 100 µM
[2]
  GI50: 0.379 µM
  TGI: 3.62 µM
[3]
  GI50: < 0.0281 µM
  TGI: > 100 µM
[4]
  TGI: > 100 µM
[5]
  GI50: < 0.042 µM
  TGI: 1.49 µM
[6]
  GI50: 4.83 µM
  TGI: > 100 µM
[7]
  GI50: 0.39 µM
  TGI: 40.3 µM
[8]
  GI50: < 0.0317 µM
  TGI: 0.196 µM
[9]
  GI50: 0.495 µM
  TGI: 15.2 µM

## COc1cc(-n2cc(-c3ccccc3)[nH]c2=O)cc(OC)c1OC
[1]
  GI50: > 100 µM
  TGI: > 100 µM
[2]
  GI50: 25.4 µM
  TGI: > 100 µM
[3]
  GI50: 60.3 µM
  TGI: > 100 µM
[4]
  GI50: 83.9 µM
  TGI: > 100 µM
[5]
  GI50: 76.3 µM
  TGI: > 100 µM
[6]
  GI50: 17.1 µM
  TGI: 52.8 µM
[10]
  GI50: 28.5 µM
  TGI: 89.7 µM
[8]
  GI50: 39.4 µM
  TGI: > 100 µM

## O=C(Nc1cccc(-n2cc(-c3ccncc3)c(-c3ccc(O)c(Cl)c3)n2)c1)c1ccc2c(c1)OCCO2
[1]
  GI50: 89.2 µM
  TGI: > 100 µM
[3]
  GI50: 4.54 µM
  TGI: > 100 µM
[4]
  GI50: 4.26 µM
  TGI: > 100 µM
[5]
  GI50: > 100 µM
  TGI: > 100 µM
[6]
  GI50: > 100 µM
  TGI: > 100 µM
[7]
  GI50: 3.02 µM
  TGI: > 100 µM
[10]
  GI50: > 100 µM
  TGI: > 100 µM
[8]
  GI50: 3.95 µM
  TGI: > 100 µM
[9]
  GI50: > 100 µM
  TGI: > 100 µM

## N#Cc1cnc2cc(OC[C@@H](O)CO)c(NC(=O)C3CCCC3)cc2c1Nc1ccc(OCc2cccc(F)c2)c(Cl)c1
[1]
  GI50: 4.28 µM
  TGI: 26 µM
[2]
  GI50: 1.33 µM
  TGI: 6.74 µM
[3]
  GI50: 0.789 µM
  TGI: 2.76 µM
[5]
  GI50: 1.82 µM
  TGI: 7.71 µM
[6]
  GI50: 0.514 µM
  TGI: 1.28 µM
[7]
  GI50: 1.29 µM
  TGI: 3.41 µM
[10]
  GI50: 1.37 µM
  TGI: 5.98 µM
[8]
  GI50: 7.72 µM
  TGI: 17.5 µM

## OB(O)c1ccccc1C#Cc1ccccc1B(O)O
[1]
  TGI: 35.1 µM
[2]
  TGI: 54.2 µM
[3]
  TGI: > 100 µM
[4]
  TGI: > 100 µM
[5]
  TGI: 49 µM
[7]
  TGI: 36.9 µM
[10]
  TGI: 46.9 µM
[8]
  TGI: 31.9 µM
[9]
  TGI: 17.3 µM

## C/C=C/C/C=C/[C@H](C)C[C@H](O)[C@@H]1C[C@@H]2O[C@H]2/C=C/[C@@H]2OC(C)(C)O[C@H]2/C=C/C[C@H](C)CC(=O)O1
[1]
  GI50: 8.02 µM
  TGI: > 100 µM
[2]
  GI50: 21 µM
  TGI: > 100 µM
[3]
  GI50: 5.6 µM
  TGI: 30.9 µM
[4]
  GI50: 4.79 µM
  TGI: > 100 µM
[5]
  GI50: 24 µM
  TGI: > 100 µM
[6]
  GI50: 9.9 µM
  TGI: > 100 µM
[7]
  GI50: 30.4 µM
  TGI: > 100 µM
[10]
  GI50: 10.4 µM
  TGI: > 100 µM
[8]
  GI50: 4.39 µM
  TGI: 44 µM
[9]
  GI50: 56.7 µM
  TGI: > 100 µM
